Experimental data from PMC10302187, “WssI from the Gram-negative bacterial cellulose synthase is an O-acetyltransferase that acts on cello-oligomers with several acetyl donor substrates” (The Journal of Biological Chemistry, 2023).

Experiments:
PfWssI^ΔN = target: T1, PfWssI^ΔN (Pseudomonas fluorescens, UniProt Q8RSY4); format: biochemical; conditions: 1 h incubation with reagent (1 mM PMSF, 5 mM MSF, 5 mM EDTA, 0.1 mM E-64, 20 μM Pepstatin A); 6 mM pNP-Ac, pH 7
T1 sequence (Q8RSY4 92-374): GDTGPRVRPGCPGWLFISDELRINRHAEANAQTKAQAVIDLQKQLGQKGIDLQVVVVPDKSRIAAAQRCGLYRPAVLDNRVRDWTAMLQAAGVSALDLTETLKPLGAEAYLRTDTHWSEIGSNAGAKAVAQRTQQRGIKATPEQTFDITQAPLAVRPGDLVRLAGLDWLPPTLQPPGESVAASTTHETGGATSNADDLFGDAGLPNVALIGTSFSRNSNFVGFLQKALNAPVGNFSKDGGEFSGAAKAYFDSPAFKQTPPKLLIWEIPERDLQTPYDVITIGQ
Procedure: (§1) The enzymatic rate of the WssI^ΔN proteins was measured using chromogenic assays in a 50 mM sodium phosphate-buffered (pH 7) solution, with WssI^ΔN (3 μM unless specified otherwise) and were initiated by the addition of pNP-Ac to a final concentration of 6 mM (dissolved in 5% [v/v] ethanol). Assay samples and corresponding controls (i.e., containing no WssI^ΔN and/or substrate) were run in quadruplicate, and the progress of the reaction was monitored at 405 nm (Cytation5) for 30 min in 1 min intervals following a 5 s initial linear shake to mix contents thoroughly. These conditions were deemed standard assay conditions for subsequent trials except where modifications are noted. The activity assay to determine optimal pH and buffer type was performed with 2-(N-morpholino)ethanesulfonic acid over pH ranges of 5.5 to 6.5, sodium phosphate for pH 6.5 to 7.5, and Tris for the final range of 7.5 to 9.25. In addition, standard assay conditions were modified by incorporating various inhibitors and common reducing agents to determine effects on WssI^ΔN activity. […] To test the effects of the absence of DTT, trials were conducted where DTT was removed from all purification and dialysis buffers, unless mentioned otherwise. Data are either reported in specific activity as units of esterase activity (i.e., the amount of enzyme required to release 1 μmol of p-nitrophenol per min^−1 per mg of protein^−1) or as percent residual activity when compared with the WssI^ΔN controls (i.e., containing no inhibitors).

AiWssI^ΔN [1] = target: T2, AiWssI^ΔN (Achromobacter insuavis, UniProt A0A6J5I893); format: biochemical; conditions: 1 h incubation with reagent (1 mM PMSF, 5 mM MSF, 5 mM EDTA, 0.1 mM E-64, 20 μM Pepstatin A); 6 mM pNP-Ac, pH 7
Procedure: as §1

[2] = test system: CC(=O)Oc1ccc2c(C)cc(=O)oc2c1; test: O-acetylesterase Michaelis-Menten kinetics; format: biochemical, Achromobacter insuavis; conditions: other: AiWssI^ΔN, acetyl donor substrate, pH 7
Procedure: as §1
(§2) The fluorescence substrate, MU-Ac, was also tested as a substrate of WssI^ΔN for its amenability to the planned high-throughput analyses (see later). Reaction setups were exactly the same as that for pNP-Ac, with the exceptions of the assay buffer (50 mM sodium phosphate, 150 mM NaCl, 1 mM DTT, pH 7), MU-Ac as the acetyl donor (final concentration of 0.5 mM along with 5% [v/v] dimethyl sulfoxide, as this was the solvent for MU-Ac), and the assay was performed in fluorescence compatible microplates (Grenier BioOne) and monitored with excitation and emission wavelengths of 365 and 450 nm, respectively for 60 min.
(§3) Kinetic assays were performed using the same standard assay conditions for esterase reactions outlined previously, but with acetyl donor pNP-Ac concentrations ranging from 0 to 10 mM and MU-Ac concentrations between 0 and 8 mM. Michaelis–Menten parameters, such as KM and kcat, were calculated from the kinetic curves according to a nonlinear regression analysis of plots of initial velocity as a function of pNP-Ac or MU-Ac concentration using GraphPad Prism, version 8.4.3 (GraphPad Sofware, Inc).

[3] = test system: CC(=O)Oc1ccc([N+](=O)[O-])cc1; test: O-acetylesterase Michaelis-Menten kinetics; format: biochemical, Achromobacter insuavis; conditions: other: AiWssI^ΔN, acetyl donor substrate, pH 7
Procedure: as §1, §2, §3

AiWssI^ΔN [4] = target: T2, AiWssI^ΔN; test: pNP-Ac cleavage in the presence of oligosaccharide acceptors; format: biochemical; conditions: 1 mM oligosaccharide, 6 mM pNP-Ac, 2 μM enzyme; for Specific activity of AiWssI^ΔN with acceptor relative to no acceptor control: t test; for Increase in AiWssI^ΔN activity versus reaction without celloacceptors: 30 min, 23 °C
Procedure: Acetyltransfer by WssI was performed under the same esterase assay protocol outlined previously, but with the addition of cellulose or chitin oligosaccharides (1 mM) as the acceptor in the presence of either pNP-Ac (6 mM) or acetyl-CoA (4 mM) as the acetyl donor ([…]). Assessment of acetyltransfer was first monitored indirectly (absorbance at 405 nm wavelength) by observing differences in pNP liberation rates in the presence and absence of the polysaccharide acceptors. Later to confirm the acetylated products, reactions performed with pNP-Ac and acceptor polysaccharides were subjected to solid-phase extraction of the carbohydrate reaction products followed by detection with MS (as outlined later). Reactions utilizing acetyl-CoA as the donor were subjected to LC–MS analyses. All model fitting and statistical analyses were performed using GraphPad Prism, version 8.4.3.

AiWssI^ΔN [5] = target: T2, AiWssI^ΔN; test: HTS MU-Ac fluorescence esterase dose-response assay; format: biochemical; conditions: MU-Ac as esterase substrate
Procedure: Large-scale HTS was conducted at the SPARC BioCentre Drug Discovery (Hospital for Sick Children, Toronto, Canada) with a subset of the Chembridge DIVERset library collection (as well as 135 manually selected compounds based on success against other SGNH enzymes) in a 384-well format. The assay was performed in singlet during the primary screen of the entire compound list and in triplicate for a follow-up confirmatory screen. Reaction setups for both screens were conducted with 50 mM sodium phosphate buffer (pH 6.5), 3 μM AiWssI^ΔN and 0.5 mM MU-Ac (final concentration of 5% [v/v] dimethyl sulfoxide) using a Thermo MultiDrop Combi Reagent Dispenser. The reaction was initiated by the addition of 20 μM of the test compounds using an Echo 550 acoustic dispenser (Labcyte). Fluorescence was monitored with a SynergyNeo microplate reader (BioTek) using excitation and emission wavelengths of 365 and 450 nm, respectively, for approximately 45 min alongside appropriate negative and positive controls. […] The hits remaining after the primary and confirmatory screening were examined further to identify possible PAINS, which could result in false-positive results ([91]). Further refinement of the lead candidates was also conducted by assessing the fluorescence quenching potential of lead compound hits by assaying the quenching potential of different compound concentrations (10.1 μM and/or 50.5 μM) against the fluorescence of 4-methylumbeliferone (247 μM) to reveal any potential false positives that were not actually because of AiWssI^ΔN activity. All fluorescence readings were normalized using the following equation to determine the percentage of quenching ([92]): NormalizedFlouresence=Fobs−μFmin/μFmax−μFminx100% In the aforementioned formula, Fobs is the sample fluorescence value, μFmin is the mean fluorescence value of the negative controls, and μFmax is the mean fluorescence value of the positive controls.
(§4) All inhibitor compounds for confirmatory assays were purchased from Enamine Ltd, with the exception of compound 1 (Santa Cruz Biotechnology, Inc), Compounds 2 and 7 (Molport via Maybridge Ltd and Vitas M Chemical Ltd, respectively) and compound 6 (Mcule, Inc). The dose–response curves were generated using either CDD Vault Analysis Software (Collaborative Drug Discovery, Inc) or GraphPad Prism, version 8.4.3. Inhibition constants (Ki) were calculated using the Cheng–Prusoff equation for competitive inhibition that is calculated using the KM of the uninhibited enzyme, the substrate concentration (S) at which the IC50 values were calculated, and the IC50 value of the inhibitor ([92]): Ki=IC50/(S/KM+1)

AiWssI^ΔN [6] = target: T2, AiWssI^ΔN; test: Follow-up standard MU-Ac esterase assay (dose-response); format: biochemical; conditions: for IC50: MU-Ac (0.5 mM) as esterase substrate, read-out: Second MU-Ac IC50; for Ki: MU-Ac as esterase substrate, Cheng-Prusoff, competitive inhibition, read-out: Second MU-Ac Ki
Procedure: as §2, §4

[7] = substrate: CC(=O)Oc1ccc2c(C)cc(=O)oc2c1; test: O-acetylesterase Michaelis-Menten kinetics; format: biochemical, Pseudomonas fluorescens; conditions: other: PfWssI^ΔN, acetyl donor substrate, pH 7
Procedure: as §1, §2, §3

[8] = substrate: CC(=O)Oc1ccc([N+](=O)[O-])cc1; test: O-acetylesterase Michaelis-Menten kinetics; format: biochemical, Pseudomonas fluorescens; conditions: other: PfWssI^ΔN, acetyl donor substrate, pH 7
Procedure: as §1, §2, §3

T2 sequence (A0A6J5I893 entry or part of it, stated change not applied): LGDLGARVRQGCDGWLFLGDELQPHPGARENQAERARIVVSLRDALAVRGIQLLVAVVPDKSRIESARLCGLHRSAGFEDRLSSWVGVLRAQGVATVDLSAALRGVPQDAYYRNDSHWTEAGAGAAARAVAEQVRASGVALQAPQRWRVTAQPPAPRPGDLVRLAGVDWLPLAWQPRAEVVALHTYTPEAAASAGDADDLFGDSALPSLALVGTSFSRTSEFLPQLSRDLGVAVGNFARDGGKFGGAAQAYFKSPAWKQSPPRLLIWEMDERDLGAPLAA

For `O=S(=O)(F)Cc1ccccc1` [PMSF], the “Residual activity PfWssI^ΔN” value (PfWssI^ΔN) was 103.2 ± 4.2% and the “Residual activity AiWssI^ΔN” value (AiWssI^ΔN [1]) was 106.3 ± 6.8%.

AiWssI^ΔN (Achromobacter insuavis) gave a Km [2] of 0.57 ± 0.24 mM, a kcat [2] of 0.00258 ± 0.00028 s⁻¹ and a kcat/Km [2] of 4.5 M⁻¹ s⁻¹. The Km [3] was 3.85 ± 1.07 mM, the kcat [3] was 0.031 ± 0.0035 s⁻¹ and the kcat/Km [3] was 8 M⁻¹ s⁻¹.

`OC[C@H]1O[C@@H](O[C@H]2[C@H](O)[C@@H](O)[C@H](O[C@H]3[C@H](O)[C@@H](O)[C@H](O[C@H]4[C@H](O)[C@@H](O)C(O)O[C@@H]4CO)O[C@@H]3CO)O[C@@H]2CO)[C@H](O)[C@@H](O)[C@@H]1O` (some centres unmarked) [cellotetraose] was tested, and the “Specific activity of AiWssI^ΔN with acceptor relative to no acceptor control” value (AiWssI^ΔN [4]) was “Significant increases in activity”.

`OC[C@H]1O[C@@H](O[C@H]2[C@H](O)[C@@H](O)[C@H](O[C@H]3[C@H](O)[C@@H](O)[C@H](O[C@H]4[C@H](O)[C@@H](O)[C@H](O[C@H]5[C@H](O)[C@@H](O)[C@H](O[C@H]6[C@H](O)[C@@H](O)C(O)O[C@@H]6CO)O[C@@H]5CO)O[C@@H]4CO)O[C@@H]3CO)O[C@@H]2CO)[C@H](O)[C@@H](O)[C@@H]1O` (some centres unmarked) [cellohexaose] was tested, and the “Increase in AiWssI^ΔN activity versus reaction without celloacceptors” value (AiWssI^ΔN [4]) was 31% and the “Specific activity of AiWssI^ΔN with acceptor relative to no acceptor control” value (AiWssI^ΔN [4]) was “Significant increases in activity”.

Molecule `CN1CCN(c2ccc(NC(=O)c3cc4sc(Nc5ccccc5)nc4s3)cn2)CC1` [Compound 4, N-[6-(4-Methylpiperazin-1-yl)pyridin-3-yl]-2-(phenylamino)thieno[2,3-days][1,3]thiazole-5-carboxamide] has an IC50 (AiWssI^ΔN [5]) of 55.3 µM.

`Cn1cccc1/C=C(/C#N)c1nnc(-c2ccccc2)n1C` [Compound 3, (2Z)-3-(1-Methyl-1H-pyrrol-2-yl)-2-(4-methyl-5-phenyl-4H-1,2,4-triazol-3-yl)-prop-2-enenitrile] gave an IC50 (AiWssI^ΔN [5]) of 85.3 µM, an IC50 (AiWssI^ΔN [6]) of 41.4 µM and a Ki (AiWssI^ΔN [6]) of 22.1 µM.

In the case of `OC[C@H]1O[C@@H](O[C@H]2[C@H](O)[C@@H](O)[C@H](O[C@H]3[C@H](O)[C@@H](O)C(O)O[C@@H]3CO)O[C@@H]2CO)[C@H](O)[C@@H](O)[C@@H]1O` (some centres unmarked) [cellotriose], the “Specific activity of AiWssI^ΔN with acceptor relative to no acceptor control” value (AiWssI^ΔN [4]) is reported as “Significant increases in activity”.

`OC[C@H]1O[C@@H](O[C@H]2[C@H](O)[C@@H](O)[C@H](O[C@H]3[C@H](O)[C@@H](O)[C@H](O[C@H]4[C@H](O)[C@@H](O)[C@H](O[C@H]5[C@H](O)[C@@H](O)C(O)O[C@@H]5CO)O[C@@H]4CO)O[C@@H]3CO)O[C@@H]2CO)[C@H](O)[C@@H](O)[C@@H]1O` (some centres unmarked) [cellopentaose] was tested, and the “Increase in AiWssI^ΔN activity versus reaction without celloacceptors” value (AiWssI^ΔN [4]) was 28% and the “Specific activity of AiWssI^ΔN with acceptor relative to no acceptor control” value (AiWssI^ΔN [4]) was “Significant increases in activity”.

`CC(=O)Nc1ccc(S(=O)(=O)Nc2ccc([N+](=O)[O-])cc2)cc1` [Compound 7, N-{4-[(4-Nitrophenyl)sulfamoyl]phenyl}acetamide] showed an IC50 (AiWssI^ΔN [5]) of 100 µM.

With `O=C[C@H](O)[C@@H](O)[C@H](O[C@@H]1O[C@H](CO)[C@@H](O)[C@H](O)[C@H]1O)[C@H](O)CO` [cellobiose] the “Specific activity of AiWssI^ΔN with acceptor relative to no acceptor control” value (AiWssI^ΔN [4]) was “Significant increases in activity”.

`CN1/C(=C/C(=O)Cn2cc(S(=O)(=O)N3CCCC3)ccc2=O)C(C)(C)c2ccccc21` [Compound 6, 1-{2-Oxo-3-[(2E)-1,3,3-trimethyl-2,3-dihydro-1H-indol-2-ylidene]propyl}-5-(pyrrolidine-1-sulfonyl)-1,2-dihydropyridin-2-one] showed an IC50 (AiWssI^ΔN [5]) of 71.9 µM.

With `CCOC(=O)NC(=O)/C(C#N)=C/c1ccc(N(C)C)cc1` [Compound 2, Ethyl N-[(2E)-2-cyano-2-{[4-(dimethylamino)-phenyl]methylidene}acetyl]carbamate] the IC50 (AiWssI^ΔN [5]) was 60.2 µM, the IC50 (AiWssI^ΔN [6]) was 22.6 µM and the Ki (AiWssI^ΔN [6]) was 12 µM.

For `O=C1NC(=O)c2ccccc2/C1=C\C=Cc1ccco1` [Compound 5, (4E)-4-[3-(Furan-2-yl)prop-2-en-1-ylidene]-1,2,3,4-tetrahydroisoquino-line-1,3-dione], the IC50 (AiWssI^ΔN [5]) was 51.9 µM.

Work on `Cc1nc(N2CCCCC2)sc1/C=N/Nc1ccc(C(=O)O)cc1` [Compound 8, 4-[(2E)-2-{[4-Methyl-2-(piperidin-1-yl)-1,3-thiazol-5-yl]methylidene}hydrazin-1-yl]benzoic acid] yielded an IC50 (AiWssI^ΔN [5]) of 90.3 µM.

B1: PfWssI^ΔN (Pseudomonas fluorescens) (protein)
chain: T1 sequence (Q8RSY4 92-374)
Work on B1 yielded a Km [7] of 0.34 ± 0.10 mM, a kcat [7] of 0.00162 ± 0.00016 s⁻¹ and a kcat/Km [7] of 4.8 M⁻¹ s⁻¹. The Km [8] was 2.41 ± 0.77 mM, the kcat [8] was 0.0312 ± 0.0034 s⁻¹ and the kcat/Km [8] was 13 M⁻¹ s⁻¹.
